According to PubChem BioAssay (NCI):
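Growth conditions: 96-well plates. Treatment: test compound, 48 hours, 5 concentrations. Analysis: linear interpolation between bracketing concentrations; unreached endpoints set to highest concentration. At the GI50, growth is halved. TGI denotes the concentration required for complete inhibition of growth.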

What was measured:
Test in all cases: growth of human tumour cells (NCI), 48 h
[1] = test system: OVCAR-4 ovarian
[2] = test system: HOP-92 NSCLC
[3] = test system: UACC-62 melanoma
[4] = test system: SK-OV-3 ovarian
[5] = test system: SF-268 CNS
[6] = test system: U251 CNS
[7] = test system: TK-10 renal
[8] = test system: KM12 colon
[9] = test system: DU-145 prostate
[10] = test system: ACHN renal
[11] = test system: BT-549 breast
[12] = test system: SNB-19 CNS
[13] = test system: SF-295 CNS
[14] = test system: UO-31 renal
[15] = test system: LOX IMVI melanoma
[16] = test system: HS 578T breast
[17] = test system: OVCAR-5 ovarian
[18] = test system: HL-60(TB) leukemia
[19] = test system: MCF7 breast
[20] = test system: SNB-75 CNS
[21] = test system: SK-MEL-2 melanoma
[22] = test system: NCI/ADR-RES ovarian
[23] = test system: PC-3 prostate
[24] = test system: NCI-H226 lung
[25] = test system: MALME-3M melanoma
[26] = test system: HCT-116 colon
[27] = test system: COLO 205 colon
[28] = test system: OVCAR-8 ovarian
[29] = test system: HOP-62 NSCLC
[30] = test system: HT29 colon
[31] = test system: K-562 leukemia
[32] = test system: MDA-MB-435
[33] = test system: IGROV1 ovarian
[34] = test system: NCI-H460 lung
[35] = test system: M14 melanoma
[36] = test system: SF-539 CNS
[37] = test system: CAKI-1 renal
[38] = test system: RPMI-8226 leukemia
[39] = test system: NCI-H23 lung
[40] = test system: SN12C renal
[41] = test system: 786-0 renal
[42] = test system: RXF 393 renal
[43] = test system: HCC-2998 colon
[44] = test system: OVCAR-3 ovarian
[45] = test system: HCT-15 colon
[46] = test system: SR leukemia
[47] = test system: SK-MEL-28 melanoma
[48] = test system: MOLT-4 leukemia
[49] = test system: A498 renal
[50] = test system: MDA-MB-231 breast
[51] = test system: SW-620 colon
[52] = test system: SK-MEL-5 melanoma
[53] = test system: T-47D breast

In the case of `CCn1c(SCC(=O)Nc2cc(C(F)(F)F)ccc2Cl)nc2ccccc2c1=O`, the GI50 [1] is reported as 22.5 µM, the TGI [1] is reported as > 100 µM and the GI50 [2] is reported as 12.1 µM. For the same compound, the TGI [2] was 41.4 µM, the GI50 [3] was 38.4 µM and the TGI [3] was > 100 µM. It also gave a GI50 [4] of 14.6 µM, a TGI [4] of 30.9 µM and a GI50 [5] of 41.2 µM. The TGI [5] was > 100 µM, the GI50 [6] was 30.3 µM and the TGI [6] was > 100 µM. For the same compound, the GI50 [7] was 23.7 µM, the TGI [7] was 66.2 µM and the GI50 [8] was > 100 µM. For the same compound, the TGI [8] was > 100 µM, the GI50 [9] was 32.3 µM and the TGI [9] was > 100 µM. The GI50 [10] was 22.6 µM, the TGI [10] was > 100 µM and the GI50 [11] was 35 µM. The TGI [11] was > 100 µM, the GI50 [12] was 32.8 µM and the TGI [12] was > 100 µM. The GI50 [13] was 71.9 µM, the TGI [13] was > 100 µM and the GI50 [14] was 28.4 µM. For the same compound, the TGI [14] was > 100 µM, the GI50 [15] was > 100 µM and the TGI [15] was > 100 µM. For the same compound, the GI50 [16] was 13 µM, the TGI [16] was 48.7 µM and the GI50 [17] was 61.9 µM. The TGI [17] was > 100 µM, the GI50 [18] was > 100 µM and the TGI [18] was > 100 µM. For the same compound, the GI50 [19] was 94.4 µM, the TGI [19] was > 100 µM and the GI50 [20] was 17.1 µM. The TGI [20] was 53.8 µM, the GI50 [21] was 24.6 µM and the TGI [21] was 72.3 µM. For the same compound, the GI50 [22] was 32.8 µM, the TGI [22] was > 100 µM and the GI50 [23] was 14 µM. For the same compound, the TGI [23] was > 100 µM, the GI50 [24] was 29.9 µM and the TGI [24] was > 100 µM. The GI50 [25] was 34.3 µM, the TGI [25] was > 100 µM and the GI50 [26] was 17.4 µM. For the same compound, the TGI [26] was > 100 µM, the GI50 [27] was > 100 µM and the TGI [27] was > 100 µM. For the same compound, the GI50 [28] was 32.2 µM, the TGI [28] was > 100 µM and the GI50 [29] was 14.6 µM. For the same compound, the TGI [29] was 33.5 µM, the GI50 [30] was > 100 µM and the TGI [30] was > 100 µM. The GI50 [31] was > 100 µM, the TGI [31] was > 100 µM and the GI50 [32] was > 100 µM. For the same compound, the TGI [32] was > 100 µM, the GI50 [33] was 28.1 µM and the TGI [33] was > 100 µM. For the same compound, the GI50 [34] was 30.5 µM, the TGI [34] was > 100 µM and the GI50 [35] was 90.7 µM. The TGI [35] was > 100 µM, the GI50 [36] was 40.1 µM and the TGI [36] was > 100 µM. For the same compound, the GI50 [37] was 24 µM, the TGI [37] was > 100 µM and the GI50 [38] was > 100 µM. For the same compound, the TGI [38] was > 100 µM, the GI50 [39] was 46.9 µM and the TGI [39] was > 100 µM. The GI50 [40] was 76.9 µM, the TGI [40] was > 100 µM and the GI50 [41] was 48.6 µM. The TGI [41] was > 100 µM, the GI50 [42] was 15.6 µM and the TGI [42] was 66.9 µM. The GI50 [43] was > 100 µM, the TGI [43] was > 100 µM and the GI50 [44] was 43.2 µM. The TGI [44] was > 100 µM, the GI50 [45] was 8.46 µM and the TGI [45] was > 100 µM. For the same compound, the GI50 [46] was > 100 µM, the TGI [46] was > 100 µM and the GI50 [47] was 53.9 µM. For the same compound, the TGI [47] was > 100 µM, the GI50 [48] was > 100 µM and the TGI [48] was > 100 µM. The GI50 [49] was 16.4 µM, the TGI [49] was 59.2 µM and the GI50 [50] was 18.9 µM. The TGI [50] was > 100 µM, the GI50 [51] was 53.4 µM and the TGI [51] was > 100 µM. For the same compound, the GI50 [52] was 25.1 µM, the TGI [52] was > 100 µM and the GI50 [53] was 25.2 µM. The TGI [53] was > 100 µM.
